Data as given in article PMC7482410 (ACS Omega, 2020).

Legend:
[1] = target: murine CCL2 (mCCL2-P8A, MCP-1) (Mus musculus, UniProt P10148, P31A); experiment: intrinsic Trp fluorescence quenching titration; assay type: binding
[2] = target: murine CCL2 (mCCL2-WT, MCP-1) (Mus musculus, UniProt P10148); experiment: intrinsic Trp fluorescence quenching titration; assay type: binding
[3] = target: human CCL2 (hCCL2-P8A, MCP-1) (Homo sapiens, UniProt P13500, P31A); experiment: intrinsic Trp fluorescence quenching titration; assay type: binding
Chain of human CCL2 (hCCL2-P8A, MCP-1) (P13500 24-99 P31A): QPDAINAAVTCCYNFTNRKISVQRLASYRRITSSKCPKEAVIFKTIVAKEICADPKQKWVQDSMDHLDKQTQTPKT

[4] = target: human CCL2 (hCCL2-WT, MCP-1) (Homo sapiens, UniProt P13500); experiment: intrinsic Trp fluorescence quenching titration; assay type: binding
Chain of human CCL2 (hCCL2-WT, MCP-1) (P13500 24-99): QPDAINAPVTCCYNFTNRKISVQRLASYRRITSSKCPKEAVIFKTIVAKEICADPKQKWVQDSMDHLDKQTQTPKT

[5] = target: murine CCL2 wild type (monocyte chemoattractant protein-1) (murine) (UniProt P10148); experiment: NMR translational diffusion
[6] = target: DDAH (Pseudomonas aeruginosa) (UniProt Q9I4E3); conditions: cited from earlier work

Chain of murine CCL2 (mCCL2-P8A, MCP-1) (P10148 24-99 P31A limits assumed): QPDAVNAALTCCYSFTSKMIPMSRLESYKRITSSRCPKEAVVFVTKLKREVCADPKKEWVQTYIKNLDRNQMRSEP
Chain of DDAH (Q9I4E3 whole entry): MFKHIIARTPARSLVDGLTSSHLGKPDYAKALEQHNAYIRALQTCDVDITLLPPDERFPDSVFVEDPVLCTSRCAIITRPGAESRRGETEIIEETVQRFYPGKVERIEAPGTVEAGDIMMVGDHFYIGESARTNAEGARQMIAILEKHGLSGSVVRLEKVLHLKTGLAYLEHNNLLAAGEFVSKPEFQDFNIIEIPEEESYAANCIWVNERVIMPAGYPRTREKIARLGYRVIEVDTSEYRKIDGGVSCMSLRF
Chain of murine CCL2 (mCCL2-WT, MCP-1) (P10148 24-99 limits assumed): as the sequence (P10148 24-99 P31A limits assumed) above, with A8P counted along it

O=C(O)[C@H]1O[C@@H](Oc2cc3oc(-c4ccccc4)cc(=O)c3c(O)c2O)[C@H](O)[C@@H](O)[C@@H]1O [BA] showed a Kd [1] of 270 ± 20 nM, a Kd [2] of 290 ± 20 nM and a Kd [3] of 260 ± 20 nM. For the same compound, the Kd [4] was 250 ± 20 nM.

“murine CCL2 wild type (monocyte chemoattractant protein-1) (from UniProt P10148 24-148) (natural protein)” showed a stoichiometry N [5] of 2.

In the case of DDAH (from UniProt Q9I4E3), the Kd [6] is given as 500 nM.
